Values quoted from earlier work as cited in publication PMC8583936, “Machine Learning Assisted Approach for Finding Novel High Activity Agonists of Human Ectopic Olfactory Receptors” (International Journal of Molecular Sciences, 2021).
Where two headings read alike, the source gives them in different places.

Experiments:
[1] = target: T1, OR1A1 (Homo sapiens, UniProt Q9P1Q5); conditions: cited from earlier work
T1 sequence (Q9P1Q5 1-309): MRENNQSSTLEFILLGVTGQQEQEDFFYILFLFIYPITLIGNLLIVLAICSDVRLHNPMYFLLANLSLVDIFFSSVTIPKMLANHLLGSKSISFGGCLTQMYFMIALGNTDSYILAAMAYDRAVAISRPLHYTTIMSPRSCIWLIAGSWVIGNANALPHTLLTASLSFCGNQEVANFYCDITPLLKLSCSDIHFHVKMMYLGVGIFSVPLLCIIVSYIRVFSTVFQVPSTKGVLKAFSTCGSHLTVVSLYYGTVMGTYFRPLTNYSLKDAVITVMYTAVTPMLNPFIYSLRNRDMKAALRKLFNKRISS

[2] = target: T2, OR2W1 (Homo sapiens, UniProt Q9Y3N9); conditions: cited from earlier work
T2 sequence (Q9Y3N9 1-320): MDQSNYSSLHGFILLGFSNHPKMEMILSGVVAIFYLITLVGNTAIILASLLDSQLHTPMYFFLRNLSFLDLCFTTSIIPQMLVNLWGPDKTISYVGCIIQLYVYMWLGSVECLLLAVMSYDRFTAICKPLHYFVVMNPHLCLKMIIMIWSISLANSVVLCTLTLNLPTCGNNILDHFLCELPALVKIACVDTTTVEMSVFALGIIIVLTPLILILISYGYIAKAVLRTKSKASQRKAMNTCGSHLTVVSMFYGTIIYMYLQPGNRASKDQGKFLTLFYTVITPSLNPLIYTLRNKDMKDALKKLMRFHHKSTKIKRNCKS

[3] = Table S1, ref Supplement references [1]-[9] as printed after each odorant name
[4] = Table S2, ref Supplement references [2]-[12] as printed after each odorant name

SMILES | Class (agonist / non-agonist / conflicting info.) for OR1A1 [1, 3] | Class (agonist / non-agonist / antagonist / conflicting info.) for OR2W1 [2, 4] | Class (agonist / non-agonist / conflicting info.) for OR1A1 [1] | Class (agonist / non-agonist / antagonist / conflicting info.) for OR2W1 [2]
COc1cc(C(=O)O)ccc1O [Vanillic acid] | Non-agonist | Non-agonist |  | 
CC(CC=O)CCCC(C)(C)O (stereo not shown) [Hydroxy-citronellal] | Conflicting info. | Non-agonist |  | 
CCCCCCCO [Heptanol] | Conflicting info. | Agonist |  | 
CCCCCCO [Hexanol] | Non-agonist | Conflicting info. |  | 
CC(C)=CC1CC(C)CCO1 (stereo not shown) [Rose oxide] | Non-agonist | Non-agonist |  | 
Cc1occc(=O)c1O [Maltol] | Non-agonist | Non-agonist |  | 
CCc1ccc(O)c(OC)c1 [2-Methoxy-4-ethylphenol] | Non-agonist | Non-agonist |  | 
C=C1CC[C@]2(C(C)C)C[C@H]12 [(+)-Sabinene] | Non-agonist | Non-agonist |  | 
CCCCC(CC)CCC(=O)O (stereo not shown) [4-Ethyloctanoic acid] | Non-agonist | Non-agonist |  | 
CCCCCCCC(OC)OC [1,1-dimethoxy-octane] | Non-agonist | Agonist |  | 
CCC1OC(=O)C(O)=C1C (stereo not shown) [5-Ethyl-3-hydroxy-4-methylfuran-2(5H)-one] | Non-agonist | Non-agonist |  | 
CC(=O)/C=C/C1=C(C)CCCC1(C)C [Β-ionone] | Non-agonist | Non-agonist |  | 
CC/C=C\CC=O [3-hexenal, (3z)-] | Non-agonist | Non-agonist |  | 
O=C1Cc2ccccc2O1 [2-coumaranone] | Non-agonist | Non-agonist |  | 
Cc1c[nH]c2ccccc12 [3-Methyl-1H-indole] | Non-agonist | Non-agonist |  | 
COC(=O)c1ccccc1 [Methyl benzoate] |  |  | Non-agonist | Non-agonist

SMILES | Class (agonist / non-agonist / conflicting info.) for OR1A1 [1, 3] | Class (agonist / non-agonist / antagonist / conflicting info.) for OR2W1 [2, 4] | Class (agonist / non-agonist / conflicting info.) for OR1A1 [1] | Class (agonist / non-agonist / antagonist / conflicting info.) for OR2W1 [2]
CCC=O [Propanal] | Conflicting info. | Conflicting info. |  | 
CCCCCOC(C)=O [N-amyl acetate] | Non-agonist | Agonist |  | 
CCOC(=O)CCC(C)C [Ethyl 4-methylvalerate] | Non-agonist | Non-agonist |  | 
COc1cc(C=O)ccc1O [Vanillin] | Non-agonist | Conflicting info. |  | 
CC(=O)O [Acetic acid] | Non-agonist | Non-agonist |  | 
SCCc1ccccc1 [2-phenylethanethiol] | Agonist | Agonist |  | 
CCC(C)C(=O)OC (stereo not shown) [Methyl 2-methylbutyrate] | Non-agonist | Non-agonist |  | 
CC12CCC(CC1=O)C2(C)C (stereo not drawn) [(+)-Camphor] | Non-agonist | Non-agonist |  | 
OCCc1ccccc1 [2-phenylethanol] | Non-agonist | Non-agonist |  | 
CCCCCCCCCC(=O)OCC [Ethyl decanoate] |  |  | Non-agonist | Non-agonist
CC(=O)OCc1ccccc1 [Benzyl acetate] | Agonist | Agonist |  | 
C[C@@]12C=CC[C@H]1[C@@H]1CCC3=CC(=O)CC[C@]3(C)[C@H]1CC2 [Androstadienone] |  |  | Agonist | Antagonist
Cc1cccc(O)c1 [3-methylphenol] |  |  | Non-agonist | Non-agonist
CCCCCCCC(=O)OCC [Ethyl octanoate] |  |  | Non-agonist | Non-agonist
CC(=O)OC/C=C(\C)CCC=C(C)C [Geranyl acetate] | Conflicting info. | Conflicting info. |  | 
CSSSC [Dimethyl trisulfide] | Non-agonist | Non-agonist |  | 
